Consider one molecule from US20050130134A1, “Means and methods for monitoring non-nucleoside reverse transcriptase inhibitor antiretroviral therapy and guiding therapeutic decisions in the treatment HIV-AIDS” (ViroLogic, Inc., priority 2000, published 2005).

“Also recorded” adds a separate entry of the source.

Assay [1] deals with RTV-1033 patient virus (RT V106A, V189L, F227L). Put plainly: Phenotypic susceptibility assay, RTV-1033 (patient 98-1033). It counts as cell-based, HIV-1. As for the experimental part:
(§1) Transfections were performed using a calcium-phosphate precipitation procedure. […] Cell lysates were assayed for luciferase activity (FIG. 3). […] The drug inhibition curves are shown in (FIG. 3).

Assay [2] has as its system HIV-1 reverse transcriptase P236L (P236L-RTV). Put plainly: Phenotypic susceptibility assay, site directed mutant P236L-RTV. In kind it is cell-based. The settings on record: P236L alone versus wild type reference RTV. As for the experimental part:
as §1
(§2) Resistance test vectors were constructed containing the P236L mutation alone and in combination with other known drug resistance mutations (K103N, Y181C) that are known to modulate the susceptibility of HIV-1 to NNRTIs. […] The P236L mutation was also introduced into a RTV containing mutations at K103N, Y181C or both (K103N+Y181C).

Assay [3] concerns HIV-1 reverse transcriptase P236L plus K103N, Y181C or both. Put plainly: Phenotypic susceptibility assay, P236L with K103N, Y181C or K103N+Y181C. It counts as cell-based. The conditions noted are these: P236L added to K103N, Y181C or K103N+Y181C versus corresponding RTV lacking P236L. As to the method:
as §1, §2

The subject of assay [4] is HIV-1 reverse transcriptase G190A (G190A-RTV). Put plainly: Phenotypic susceptibility assay, site directed mutant G190A-RTV. It counts as cell-based. The conditions noted are these: G190A-RTV versus wild type reference RTV. As for the experimental part:
(§3) Resistance tests were carried out with resistance test vectors using two host cell types. Resistance test vector viral particles were produced by a first host cell (the resistance test vector host cell) that was prepared by transfecting a packaging host cell with the resistance test vector and the packaging expression vector. The resistance test vector viral particles were then used to infect a second host cell (the target host cell) in which the expression of the indicator gene is measured.
(§4) The resistance test vectors containing a functional luciferase gene cassette were constructed and host cells were transfected with the resistance test vector DNA. The resistant test vectors contained patient-derived reverse transcriptase and protease sequences that were either susceptible or resistant to the antiretroviral agents, such as nucleoside reverse transcriptase inhibitors, non-nucleoside reverse transcriptase inhibitors and protease inhibitors. The resistance test vector viral particles produced by transfecting the resistance test vector DNA into host cells, either in the presence or absence of protease inhibitors, were used to infect target host cells grown either in the absence of NRTI or NNRTI or in the presence of increasing concentrations of the drug. The amount of luciferase activity produced in infected target host cells in the presence of drug was compared to the amount of luciferase produced in infected target host cells in the absence of drug. Drug resistance was measured as the amount of drug required to inhibit by 50% the luciferase activity detected in the absence of drug (inhibitory concentration 50%, IC50). The IC50 values were determined by plotting percent drug inhibition vs. log10 drug concentration.
(§5) Host cells were seeded in 10-cm-diameter dishes and were transfected several days after plating with resistance test vector plasmid DNA and the envelope expression vector. Transfections were performed using a calcium-phosphate precipitation procedure. The cell culture media containing the DNA precipitate was replaced with fresh medium, from one to 24 hours, after transfection. […] HIV capsid protein (p24) levels in the harvested cell culture media were determined by an EIA method as described by the manufacturer (SIAC; Frederick, Md.). […] The inhibitory effect of the drug was determined using the following equation: % luciferase inhibition=1-(RLUluc[drug]÷RLUluc)×100 where RLUluc [drug] is the relative light unit of luciferase activity in infected cells in the presence of drug and RLUluc is the Relative Light Unit of luciferase activity in infected cells in the absence of drug. […]

Assay [5] deals with HIV-1 reverse transcriptase Y181I (Y181I-RTV). Put plainly: Phenotypic susceptibility assay, site directed mutant Y181I-RTV. The settings on record: >1 loss of susceptibility. In kind it is cell-based. As to the method: as §3
as §4, with “The amount of luciferase activity produced in infected target host cells in the presence of drug was compared to the amount of luciferase produced in infected target host cells in the absence of drug. Drug resistance was measured as the amount of drug required to inhibit by 50% the luciferase activity detected in the absence of drug (inhibitory concentration 50%, IC50).” left out
as §5, with “vector.” for “vector. Transfections were performed using a calcium-phosphate precipitation procedure. The cell culture media containing the DNA precipitate was replaced with fresh medium, from one to 24 hours, after transfection.”

Assay [6] relates to HIV-1 reverse transcriptase A98G (A98G-RTV). Put plainly: Phenotypic susceptibility assay, site directed mutant A98G-RTV. In kind it is cell-based. The conditions noted are these: >1 loss of susceptibility. As to the method: as §3
as §4, with “The amount of luciferase activity produced in infected target host cells in the presence of drug was compared to the amount of luciferase produced in infected target host cells in the absence of drug. Drug resistance was measured as the amount of drug required to inhibit by 50% the luciferase activity detected in the absence of drug (inhibitory concentration 50%, IC50).” left out
as §5, with “vector.” for “vector. Transfections were performed using a calcium-phosphate precipitation procedure. The cell culture media containing the DNA precipitate was replaced with fresh medium, from one to 24 hours, after transfection.”

Assay [7] concerns HIV-1 reverse transcriptase A98G + G190S (A98G-G190S-RTV). Put plainly: Phenotypic susceptibility assay, site directed mutant A98G-G190S-RTV. It counts as cell-based. The conditions noted are these: >1 loss, <1 increased susceptibility. As to the method:
as §3
as §4, with “The amount of luciferase activity produced in infected target host cells in the presence of drug was compared to the amount of luciferase produced in infected target host cells in the absence of drug. Drug resistance was measured as the amount of drug required to inhibit by 50% the luciferase activity detected in the absence of drug (inhibitory concentration 50%, IC50).” left out
as §5, with “vector.” for “vector. Transfections were performed using a calcium-phosphate precipitation procedure. The cell culture media containing the DNA precipitate was replaced with fresh medium, from one to 24 hours, after transfection.”

For assay [8], the system named is HIV-1 reverse transcriptase Y181C (Y181C-RTV). Put plainly: Phenotypic susceptibility assay, site directed mutant Y181C-RTV. In kind it is cell-based. The settings on record: Y181C site directed mutant, FIG. 5. As to the method: as §3
as §4, with “The amount of luciferase activity produced in infected target host cells in the presence of drug was compared to the amount of luciferase produced in infected target host cells in the absence of drug. Drug resistance was measured as the amount of drug required to inhibit by 50% the luciferase activity detected in the absence of drug (inhibitory concentration 50%, IC50).” left out
as §5, with “vector.” for “vector. Transfections were performed using a calcium-phosphate precipitation procedure. The cell culture media containing the DNA precipitate was replaced with fresh medium, from one to 24 hours, after transfection.”

In assay [9] the test system is HIV-1 reverse transcriptase Y181C + A98G (Y181C-A98G-RTV). Put plainly: Phenotypic susceptibility assay, site directed mutant Y181C-A98G-RTV. In kind it is cell-based. The settings on record: >1 loss of susceptibility. As to the method:
as §3
as §4, with “The amount of luciferase activity produced in infected target host cells in the presence of drug was compared to the amount of luciferase produced in infected target host cells in the absence of drug. Drug resistance was measured as the amount of drug required to inhibit by 50% the luciferase activity detected in the absence of drug (inhibitory concentration 50%, IC50).” left out
as §5, with “vector.” for “vector. Transfections were performed using a calcium-phosphate precipitation procedure. The cell culture media containing the DNA precipitate was replaced with fresh medium, from one to 24 hours, after transfection.”

`Cc1ccnc2c1NC(=O)c1cccnc1N2C1CC1` [nevirapine]: the decrease in susceptibility result in assay [1] is “greater than 800 fold”. In addition, the “change in susceptibility” value is listed as “no significant change; also recorded: little or no reduction” in [2], “did not significantly alter; also recorded: little or no additional reduction; also recorded: no effect” in assay [3] and “markedly less susceptible; also recorded: decrease; also recorded: greatly reduce susceptibility” in assay [4]. For the same molecule, the “fold change in susceptibility compared to wild type control RTV” value in assay [5] is 740 fold; in [6], 8 fold; in assay [7], “greater than 800 fold”; in assay [9] it was “greater than 800 fold”. Further, in [8], the “resistance profile” value is recorded as “resistance”.
